{
  "source": "patent US20060270742A1",
  "about": "“Compositions and methods for the treatment of neurodegenerative diseases” (priority 2005, published 2006)",
  "key": {"SMN protein [1]": {"tested_on": "SMN protein", "assay": "SMN cytoblot assay in SMA patient fibroblasts", "type": "cell-based, human", "conditions": "for SMN protein levels: SMA patient fibroblasts, cytoblot; for SMN per viable cell (normalized hit): SMN cytoblot relative to cell number estimated by Alamar blue", "description": "One method for monitoring SMN protein levels in cells is through use of a cytoblot assay, in which cells are fixed and probed with an antibody against a target protein of interest.\nUsing the cytoblot assay, we can clearly distinguish SMN protein levels in patient (GM03813) versus carrier fibroblast cells (GM03814).\nThe SMN cytoblot protocol is described below.\n• 1. Plate 50 μl per well of 300,000 cells/ml (15,000 cells per well) into Nunc white 384-well opaque-bottomed plates. • 2. Incubate plates at 37° C., 5% CO2 overnight. Day 2 • 1. Aspirate media from wells using Tecan plate washer. • 2. Fix cells by adding 20 μl/well of cold methanol (kept in −20° C. freezer). • 3. Incubate plates in 4° C. refrigerator for 10 minutes. • 4. Aspirate methanol using Tecan plate washer. • 5. Add 50 μl/well of primary Ab solution, (BD anti-SMN Ab diluted to 125 ng/ml in 10% fetal goat serum PBST), using multi-drop. • 6. Seal plates and incubate overnight at room temperature. Day 3 • 1. After 16-20 hrs incubation, wash plates with PBST 2× using Tecan plate washer. • 2. Add 50 μl of secondary Ab solution, (Santa Cruz goat anti-Mouse-HRP diluted to 67 ng/ml in 10% fetal goat serum PBST). • 3. Seal plates and incubate 2 hrs at room temperature. • 4. Wash plates with PBST 2× using Tecan plate washer. • 5. Add 50 μl/well 10% fetal goat serum PBST. • 6. Incubate in 4° C. refrigerator for 10 minutes. • 7. Aspirate plates using plate washer and add ECL luminescence solution, 20 μl/well. • 8. Measure luminescence on plate reader. Automated Scoring\nWe scored each compound based on the maximum signal-to-noise ratio (SNR) found among its dose curves. These scores are based on edge-corrected SMN data, using only plates that passed quality control. The untreated level on each plate was found by taking the median of the untreated wells, and for each treated well we calculated a log(T/U) ratio. Each curve was generated in triplicate on each plate, so each point on a compound's dose curve was obtained by determining the median for the replicate points. Each ratio thus has an error estimate from the scatter between the triplicate data points (1.5 times the median absolute deviation from the median). For each dose curve, we calculated the SNR for each data point log(T/U)/error, and chose the maximum point as our indicator of SMN induction activity. Since this is a signal-to-noise score, scores much greater than one indicate significant activity, assuming normal statistics. We decided to use a cutoff signal-to-noise ratio of 6. This selection represents a considerable enrichment towards visually-selected compounds. We identified 100 out of 2000 compounds producing scores>6. This included 13 of the 28 visual selections.\n• 1. […] Type 3 reversal of curve hits […]"}, "SMN protein [2]": {"tested_on": "SMN protein", "assay": "Western blot of SMN protein in treated cells", "type": "cell-based, human", "conditions": "72 hours treatment, densitometry, fold change relative to vehicle (DMSO)", "description": "Effects on SMN protein levels were also confirmed by western blots. Cells were treated with compound or vehicle for 72 hours. Cell lysates were prepared and analyzed by western blot. SMN protein levels were quantified by densitometry and normalized to an internal control protein (GAPdH or EIF4e) (FIGS. 4-6). The SMN/control ratios shown in FIGS. 4-6 depict the fold change relative to vehicle (DMSO) control."}},
  "data": [
    {"compound": "NC12CC3CC(CC(C3)C1)C2", "note": "[amantadine]", "values": [
      {"measurement": "SMN protein levels", "setting": "SMN protein [1]", "value": "increase SMN protein levels"},
      {"measurement": "SMN per viable cell (normalized hit)", "setting": "SMN protein [1]", "value": "normalized hits"}
    ]},
    {"compound": "CC12CC3CC(C)(C1)CC(N)(C3)C2", "note": "[memantine, 1-amino-3,5-dimethyl adamantane]", "values": [
      {"measurement": "SMN protein levels", "setting": "SMN protein [1]", "value": "increase SMN protein levels"},
      {"measurement": "SMN per viable cell (normalized hit)", "setting": "SMN protein [1]", "value": "normalized hits"},
      {"measurement": "SMN protein relative to control proteins GAPdH and eIF4E", "setting": "SMN protein [2]", "value": "increases in SMN protein"}
    ]}
  ]
}
